From US5693661A (priority 1995, dated 1997) come the findings set out here.

Values after ≈ are worked out from the molar mass of the structure shown.

What all share (format): cell-based
The test system of one experiment is PV-1 (poliovirus). In words: microbe, parasite or virus in culture. Conditions: Enterovirus C; 72 hours at 37° C.; read-out: IC50, PV-1 (50 percent inhibition of plaque formation).
Another experiment relates to RhV-14 (Rhinovirus). The experiment can be described thus: microbe, parasite or virus in culture. Conditions: 120 hours at 32° C.; for IC50: Enterovirus, 120 h, read-out: IC50, RhV-14 (50 percent inhibition of plaque formation).
A further experiment concerns RhV-1 (Rhinovirus). The experiment can be described thus: microbe, parasite or virus in culture. Conditions: Enterovirus; 120 hours at 32° C.; read-out: IC50, RhV-1 (50 percent inhibition of plaque formation).
For another experiment, the system named is RhV-16 (Rhinovirus). In words: microbe, parasite or virus in culture. Conditions: Enterovirus; 120 hours at 32° C.; read-out: IC50, RhV-16 (50 percent inhibition of plaque formation).
A further experiment concerns RhV-2 (Rhinovirus). The experiment can be described thus: microbe, parasite or virus in culture. Conditions: Enterovirus; 120 hours at 32° C.; read-out: IC50, RhV-2 (50 percent inhibition of plaque formation).
The test system of a further experiment is CS-B3 (Coxsackie virus). In words: organism not typed. Conditions: 72 hours at 37° C.; read-out: IC50, CS-B3 (50 percent inhibition of plaque formation).
The test system of experiment [1] is CS-A21C (Coxsackie virus). The experiment can be described thus: organism not typed. Conditions: 72 hours at 37° C.; read-out: IC50, CS-A21C (50 percent inhibition of plaque formation).

Regarding `C#C/C=C(\c1ccc(SC)cc1)c1ccc2nc(N)n(S(=O)(=O)C(C)C)c2c1` [4 (trans)], the half-inhibitory concentration (IC50) in the experiment with PV-1 (poliovirus) came to 0.5 µg/mL (≈ 1.21 µM).
With `C#CC=C(c1cccc(F)c1)c1ccc2nc(N)n(S(=O)(=O)N(C)C)c2c1` [16B (trans)], the IC50 in the experiment with RhV-14 (Rhinovirus) was found to be 0.038 µg/mL (≈ 0.0988 µM).
With `C#CC=C(c1ccccc1)c1ccc2nc(N)n(S(=O)(=O)C(C)C)c2c1F` [22 (trans)], the concentration for half-maximal inhibition (IC50) in the experiment on RhV-14 (Rhinovirus) is 1.9 µg/mL (≈ 4.96 µM).
For `C#C/C=C(/c1ccc(C(C)C)cc1)c1ccc2nc(N)n(S(=O)(=O)C(C)C)c2c1` [11 (cis)], the IC50 with PV-1 (poliovirus) amounted to 2.74 µg/mL (≈ 6.72 µM).
Same read-out and setting: with `C#C/C=C(\c1ccc(C(F)(F)F)cc1)c1ccc2nc(N)n(S(=O)(=O)C(C)C)c2c1` [13 (trans)] the figure was 0.12 µg/mL (≈ 0.277 µM).
In the case of `C#CC=C(c1ccccc1)c1cc2c(cc1C)nc(N)n2S(=O)(=O)C(C)C` [23 (trans)], the IC50 in the experiment with RhV-14 (Rhinovirus) worked out at 3.9 µg/mL (≈ 10.3 µM).
Take `C#C/C=C(\c1ccccc1)c1ccc2ncn(S(=O)(=O)C(C)C)c2c1` [12 (trans)]: in the experiment on PV-1 (poliovirus), the IC50 worked out at 19.2 µg/mL (≈ 54.8 µM).
As to `C#C/C=C(\c1ccc(F)cc1)c1ccc2nc(N)n(S(=O)(=O)C(C)C)c2c1` [1B (trans)], the IC50 in the experiment on RhV-1 (Rhinovirus) was determined as 0.078 µg/mL (≈ 0.203 µM); in the experiment with RhV-14 (Rhinovirus), 0.101 µg/mL (≈ 0.263 µM); in the experiment on RhV-16 (Rhinovirus), 0.032 µg/mL (≈ 0.0835 µM); with RhV-2 (Rhinovirus), 0.091 µg/mL (≈ 0.237 µM).
For `CC(C)S(=O)(=O)n1c(N)nc2ccc(/C(=C/C#C[Si](C)(C)C)c3ccc(F)cc3)cc21` [1A (trans)], the IC50 in the experiment on RhV-14 (Rhinovirus) worked out at 10.9 µg/mL (≈ 23.9 µM).
Take `C#CC=C(c1ccc(N(C)C)cc1)c1ccc2nc(N)n(S(=O)(=O)C(C)C)c2c1` [15B (trans)]: the IC50 in the experiment on RhV-14 (Rhinovirus) is 0.1 µg/mL (≈ 0.245 µM).
Consider `C#CC=C(c1ccc(F)c(F)c1)c1ccc2nc(NS(C)(=O)=O)n(S(=O)(=O)C(C)C)c2c1` [18 (trans)], for which the IC50 with RhV-14 (Rhinovirus) came out at 1.88 µg/mL (≈ 3.92 µM).
For `CC(C)S(=O)(=O)n1c(N)nc2ccc(/C(=C\C#C[Si](C)(C)C)c3ccc(F)cc3)cc21` [1A (cis)], the IC50 in the experiment on RhV-14 (Rhinovirus) was found to be 3.9 µg/mL (≈ 8.56 µM).
The same measure, in the same setting: with `CC#CC=C(c1cccc(F)c1)c1ccc2nc(N)n(S(=O)(=O)C(C)C)c2c1` [33D (trans)] the figure was 0.19 µg/mL (≈ 0.478 µM).
Consider `C#CC=C(c1cccc(F)c1)c1ccc2nc(N)n(S(=O)(=O)N(C)C)c2c1` [17 (trans)], for which the “IC50, RhV-14 (50 percent inhibition of plaque formation)” value in the experiment on RhV-14 (Rhinovirus) is 0.071 µg/mL.
As to `C#C/C=C(\c1cccc(C(F)(F)F)c1)c1ccc2nc(N)n(S(=O)(=O)C(C)C)c2c1` [14 (trans)], the IC50 in the experiment on RhV-14 (Rhinovirus) came out at 0.331 µg/mL (≈ 0.764 µM).
For the compound `C#CC=C(c1cc(F)cc(F)c1)c1ccc2nc(N)n(S(=O)(=O)C(C)C)c2c1` [29 (trans)], the IC50 in the experiment on RhV-1 (Rhinovirus) was 0.124 µg/mL (≈ 0.309 µM); in the experiment with RhV-14 (Rhinovirus), 0.236 µg/mL (≈ 0.588 µM); in the experiment with RhV-16 (Rhinovirus) it was 0.261 µg/mL (≈ 0.65 µM); in the experiment with RhV-2 (Rhinovirus) it was 0.176 µg/mL (≈ 0.438 µM).
In the case of `C#CC=C(c1ccc(F)c(F)c1)c1ccc2nc(N)n(S(=O)(=O)C(C)C)c2c1` [20 (trans)], the IC50 in the experiment on RhV-14 (Rhinovirus) was determined as 0.155 µg/mL (≈ 0.386 µM).
`C#CC=C(c1cccc(Cl)c1)c1ccc2nc(N)n(S(=O)(=O)C(C)C)c2c1` [27 (trans)]: the IC50 in the experiment on RhV-1 (Rhinovirus) turned out to be 0.129 µg/mL (≈ 0.323 µM); in the experiment on RhV-14 (Rhinovirus), 0.253 µg/mL (≈ 0.633 µM); in the experiment with RhV-16 (Rhinovirus), 0.185 µg/mL (≈ 0.463 µM); in the experiment with RhV-2 (Rhinovirus) it was 0.123 µg/mL (≈ 0.308 µM).
Take `C#C/C=C(/c1ccccc1)c1ccc2nc(N)n(S(=O)(=O)C(C)C)c2c1` [2C (cis)]: the figures for the IC50 in the experiment with CS-B3 (Coxsackie virus) and in the experiment on PV-1 (poliovirus) were 0.055 µg/mL (≈ 0.15 µM) and 0.19 µg/mL (≈ 0.52 µM), respectively.
For the compound `C#CC=C(c1ccc2nc(N)n(S(=O)(=O)C(C)C)c2c1)c1ccccc1F` [21 (cis)], in the experiment on RhV-14 (Rhinovirus), the “IC50, RhV-14 (50 percent inhibition of plaque formation)” value turned out to be 0.478 µg/mL.
For the compound `C#C/C=C(\c1ccccc1)c1ccc2nc(N)n(S(=O)(=O)C(C)C)c2c1` [2C (trans)], the IC50 worked out at 0.033 µg/mL (≈ 0.0903 µM) with RhV-1 (Rhinovirus); 0.081 µg/mL (≈ 0.222 µM) in the experiment on RhV-14 (Rhinovirus); 0.32 µg/mL (≈ 0.876 µM) in experiment [1]; 0.039 µg/mL (≈ 0.107 µM) in the experiment on RhV-16 (Rhinovirus); 0.065 µg/mL (≈ 0.178 µM) in the experiment with RhV-2 (Rhinovirus); 0.035 µg/mL (≈ 0.0958 µM) in the experiment on PV-1 (poliovirus).
As for `C#CC=C(c1ccc(OC(F)(F)F)cc1)c1ccc2nc(N)n(S(=O)(=O)C(C)C)c2c1` [28 (trans)], the IC50 in the experiment on RhV-2 (Rhinovirus) stood at 0.535 µg/mL (≈ 1.19 µM).
With `C#C/C=C(\c1ccccc1)c1cc2c(cc1F)nc(N)n2S(=O)(=O)C(C)C` [5 (trans)], in the experiment with RhV-14 (Rhinovirus), the IC50 was found to be 1.9 µg/mL (≈ 4.96 µM).
For the compound `C#CC=C(c1cccc(F)c1)c1ccc2nc(N)n(S(=O)(=O)C(C)C)c2c1` [24 (trans)], the IC50 in the experiment on RhV-1 (Rhinovirus) is 0.027 µg/mL (≈ 0.0704 µM); with RhV-14 (Rhinovirus), 0.088 µg/mL (≈ 0.229 µM); in the experiment with RhV-16 (Rhinovirus), 0.057 µg/mL (≈ 0.149 µM); with RhV-2 (Rhinovirus), 0.069 µg/mL (≈ 0.18 µM).
Consider `C#CC=C(c1ccc(OC)c(F)c1)c1ccc2nc(N)n(S(=O)(=O)C(C)C)c2c1` [25 (cis)], for which the “IC50, RhV-14 (50 percent inhibition of plaque formation)” value in the experiment with RhV-14 (Rhinovirus) amounted to 0.428 µg/mL.
`C#C/C=C(\c1ccc(C)c(C)c1)c1ccc2nc(N)n(S(=O)(=O)C(C)C)c2c1` [8 (trans)]: in the experiment with PV-1 (poliovirus), the IC50 worked out at 0.1 µg/mL (≈ 0.254 µM).
On to `C#CC=C(c1ccc(OC)c(F)c1)c1ccc2nc(N)n(S(=O)(=O)C(C)C)c2c1` [25 (trans)], for which the IC50 in the experiment with RhV-1 (Rhinovirus) is 0.049 µg/mL (≈ 0.119 µM); in the experiment with RhV-16 (Rhinovirus) it was 0.06 µg/mL (≈ 0.145 µM); in the experiment with RhV-2 (Rhinovirus), 0.054 µg/mL (≈ 0.131 µM). In the experiment with RhV-14 (Rhinovirus), the “IC50, RhV-14 (50 percent inhibition of plaque formation)” value was 0.065 µg/mL.
As for `C#C/C=C(\c1ccccc1)c1ccc2nc(N)n(-c3ccc(OC)cc3)c2c1` [9 (trans)], the IC50 with PV-1 (poliovirus) was 0.11 µg/mL (≈ 0.301 µM).
As for `C#CC=C(c1ccc2nc(N)n(S(=O)(=O)C(C)C)c2c1)c1ccccc1F` [21 (trans)], the “IC50, RhV-14 (50 percent inhibition of plaque formation)” value in the experiment on RhV-14 (Rhinovirus) is 0.078 µg/mL.
On to `C#C/C=C(/c1ccccc1)c1ccc2nc(N)n(-c3ccc(OC)cc3)c2c1` [9 (cis)], for which the IC50 with PV-1 (poliovirus) amounted to 0.52 µg/mL (≈ 1.42 µM).
The same measure, in the same setting: the value for `C#CC=C(c1ccc(S(C)(=O)=O)cc1)c1ccc2nc(N)n(S(=O)(=O)C(C)C)c2c1` [31 (trans)] was 0.05 µg/mL (≈ 0.113 µM); that for `C#C/C=C(/c1ccccc1)c1ccc2ncn(S(=O)(=O)C(C)C)c2c1` [12 (cis)] was 50 µg/mL (≈ 143 µM).
Still for that read-out and setting: the value for `C#C/C=C(\c1ccc(C(C)C)cc1)c1ccc2nc(N)n(S(=O)(=O)C(C)C)c2c1` [11 (trans)] was 0.088 µg/mL (≈ 0.216 µM).
Turning to `C#CC=C(c1ccc(C)cc1)c1ccc2nc(N)n(S(=O)(=O)C(C)C)c2c1` [19 (trans)], the IC50 in the experiment with RhV-14 (Rhinovirus) came to 0.078 µg/mL (≈ 0.206 µM).
For the compound `C#C/C=C(\c1ccc(OC)cc1)c1ccc2nc(N)n(S(=O)(=O)C(C)C)c2c1` [3 (trans)], the IC50 was determined as 0.03 µg/mL (≈ 0.0759 µM) in the experiment with RhV-1 (Rhinovirus); 0.059 µg/mL (≈ 0.149 µM) with RhV-14 (Rhinovirus); 0.029 µg/mL (≈ 0.0733 µM) in the experiment with RhV-16 (Rhinovirus); 0.041 µg/mL (≈ 0.104 µM) with RhV-2 (Rhinovirus); 0.21 µg/mL (≈ 0.531 µM) in the experiment with PV-1 (poliovirus).
As to `C#CC=C(c1ccc2nc(N)n(S(=O)(=O)C(C)C)c2c1)c1cc(F)ccc1F` [26 (trans)], the IC50 in the experiment with RhV-1 (Rhinovirus) worked out at 0.096 µg/mL (≈ 0.239 µM); with RhV-14 (Rhinovirus) it was 0.115 µg/mL (≈ 0.286 µM); with RhV-16 (Rhinovirus), 0.099 µg/mL (≈ 0.247 µM); with RhV-2 (Rhinovirus), 0.079 µg/mL (≈ 0.197 µM).
As to `C#CC=C(c1ccc([S+](C)[O-])cc1)c1ccc2nc(N)n(S(=O)(=O)C(C)C)c2c1` (stereo not drawn) [30 (trans)], the concentration for half-maximal inhibition (IC50) with PV-1 (poliovirus) came to 0.07 µg/mL (≈ 0.164 µM).

As a reminder, the IC50 is the concentration needed to halve the response being measured.
